From ChEMBL document CHEMBL1138984, “Identification of phosphodiesterase-1 and 5 dual inhibitors by a ligand-based virtual screening optimized for lead evolution” (Bioorg Med Chem Lett, 2006)
Values belong to the compound of their own block, whether it stands above or below them.

Legend:
Phosphodiesterase 1 [1] = biological target: T1, Phosphodiesterase 1 (Homo sapiens, UniProt P54750+Q01064+Q14123); assay: Inhibition of PDE1; type: protein assay
[2] = biological target: T2, cGMP-specific 3',5'-cyclic phosphodiesterase (Homo sapiens, UniProt O76074); assay: Inhibition of PDE5
Phosphodiesterase 1 [3] = biological target: T1, Phosphodiesterase 1; assay: Inhibition of PDE1 at 10 uM; type: protein assay; parameters: scale not given: the % may be the effect or the level left
[4] = biological target: T2, cGMP-specific 3',5'-cyclic phosphodiesterase; assay: Inhibition of PDE5 at 10 uM; parameters: scale not given: the % may be the effect or the level left

Structure (SMILES): Cn1c(=O)[nH]c(=O)c2c1nc(S)n2CC(O)COc1ccc2ccccc2c1 (stereo not drawn)
IC50 (Phosphodiesterase 1 [1]): 0.3 µM
IC50 [2]: 8.7 µM

Structure (SMILES): O=C(CSc1nnc(-c2ccccc2O)o1)NNC(=O)Cc1ccccc1
Activity (Phosphodiesterase 1 [3]): 22%
Activity [4]: 1%

Structure (SMILES): COc1cc(C2CC(=O)NC(SCC(=O)Nc3ccc(Br)cc3)=C2C#N)ccc1O (stereo not drawn)
Activity (Phosphodiesterase 1 [3]): 25%
Activity [4]: 23%

Structure (SMILES): NS(=O)(=O)c1ccc(-c2ccc(/C=C3/C(=O)NN(c4cccc(C(F)(F)F)c4)C3=O)o2)cc1
Activity (Phosphodiesterase 1 [3]): 45%
Activity [4]: 66%

Structure (SMILES): COc1ccc(-c2nc(NC(=O)CSCC(=O)O)sc2C)cc1
Activity (Phosphodiesterase 1 [3]): 21%
Activity [4]: 51%

Structure (SMILES): Cc1cc(C(=O)Nc2cccc(C(=O)O)c2)cc(S(=O)(=O)Nc2cccc(C(=O)O)c2)c1C
Activity (Phosphodiesterase 1 [3]): 49%
Activity [4]: 19%

Structure (SMILES): COc1ccccc1Nc1nc(-c2sc(N)nc2C)cs1
IC50 (Phosphodiesterase 1 [1]): 2.5 µM
IC50 [2]: 3 µM

Structure (SMILES): Cc1ccc(-c2cc(C(=O)Nc3ccc(S(N)(=O)=O)cc3)c3ccccc3n2)s1
IC50 (Phosphodiesterase 1 [1]): 2.5 µM
IC50 [2]: 6.3 µM

Structure (SMILES): Cc1oc(C(=O)N2CCCC2C(=O)O)cc1COc1ccc2oc3ccccc3c2c1 (stereo not drawn)
Activity (Phosphodiesterase 1 [3]): 42%
Activity [4]: 48%

Structure (SMILES): Cc1cccc(NCc2n[nH]c(SCC(=O)Nc3cc([N+](=O)[O-])ccc3Cl)n2)c1
Activity (Phosphodiesterase 1 [3]): 22%
Activity [4]: 53%

The next lines start with the values.

IC50 (Phosphodiesterase 1 [1]): 3.7 µM
IC50 [2]: 3.1 µM
Structure (SMILES): O=C(O)c1ccc(-c2ccc(-c3nc(O)c4c5c(sc4n3)CCCC5)o2)cc1

Activity (Phosphodiesterase 1 [3]): 12%
Activity [4]: 39%
Structure (SMILES): CCOc1ccc2nc(SCC(=O)NCc3ccc(C(=O)O)cc3)sc2c1

Activity (Phosphodiesterase 1 [3]): 15%
Activity [4]: 44%
Structure (SMILES): Cc1cc(C)nc(NS(=O)(=O)c2ccc(NC(=O)c3cccc(NC(=O)C(F)(F)F)c3)cc2)n1

IC50 (Phosphodiesterase 1 [1]): 5.7 µM
IC50 [2]: 1.7 µM
Structure (SMILES): N#Cc1c(N)nc(SCC(=O)Nc2ccc(F)cc2)c(C#N)c1-c1ccccc1

Activity (Phosphodiesterase 1 [3]): 9%
Activity [4]: 52%
Structure (SMILES): N#CC1=C(N)OC2=C(C(=O)CCC2)C1c1ccc(OCC(=O)Nc2cccc(C(F)(F)F)c2)cc1 (stereo not drawn)

Activity (Phosphodiesterase 1 [3]): 59%
Activity [4]: 46%
Structure (SMILES): COc1cc(/C=C2\SC(=S)N(CC(=O)O)C2=O)ccc1OC(=O)c1cccs1

IC50 (Phosphodiesterase 1 [1]): 1.9 µM
IC50 [2]: 0.7 µM
Structure (SMILES): N#Cc1c(C(F)(F)F)cc(-c2cccs2)nc1SCc1ccc(C(=O)O)cc1

Activity (Phosphodiesterase 1 [3]): 9%
Activity [4]: 42%
Structure (SMILES): COc1ccc(-c2csc(-n3[nH]c(C)c(C(c4ccccc4)C(C#N)C(N)=O)c3=O)n2)cc1 (stereo not drawn)

IC50 (Phosphodiesterase 1 [1]): 2.5 µM
IC50 [2]: 2.1 µM
Structure (SMILES): N#Cc1c(/N=C/c2ccc(-c3ccc(C(=O)O)cc3)o2)sc2c1CCCC2
